We go through 23 compounds from patent US7034018B2, “Substituted pyrrole mannich bases to combat pain and allergic reactions” (Gruenenthal GmbH, priority 1999, dated 2006).

The test system of assay [1] is phenylquinone-induced writhing in mice. In words: Analgesia test in the phenylquinone-induced writhing test in mice. It counts as in vivo. The conditions noted are these: male NMRI mice; standard dose of 10 mg/kg, intravenous, 10 minutes before phenylquinone i.p. How it is done: The in-depth investigation for analgesic activity was carried out in the phenylquinone-induced writhing in mice (modified by I. C. Hendershot, J. Forsaith, J. Pharmacol. Exp. Ther. 125, 237-240 (1959)). Male NMRI mice weighing 25-30 g were used for this. Groups of 10 animals per substance dose received 0.3 ml/mouse of a 0.02% aqueous solution of phenylquinone (phenylbenzoquinone, Sigma, Deisenhofen; preparation of the solution with the addition of 5% ethanol and storage in a water bath at 45° C.) administered intraperitoneally 10 minutes after intravenous administration of the test substances. The animals were placed individually in observation cages. The number of pain-induced stretching movements (so-called writhing reactions=straightening of the body with stretching of the hind extremities) were counted by means of a push-button counter for 5-20 minutes after the administration of phenylquinone. Animals which received only physiological saline solution were also run as a control.
The substances were tested in the standard dose of 10 mg/kg. The inhibition of the writhing reactions by a substance was calculated according to the following equation: [formula]

The target in the next assay is T1, 5-HT transporter (Rattus norvegicus, UniProt P31652).
T1 construct: these vesicular particles were isolated from the pons and medulla oblongata region of the male rat brain; from tissue; host or cells: rat brain synaptosomes (P2 fraction) from the pons and medulla oblongata of male rats
T1 sequence (P31652 whole entry): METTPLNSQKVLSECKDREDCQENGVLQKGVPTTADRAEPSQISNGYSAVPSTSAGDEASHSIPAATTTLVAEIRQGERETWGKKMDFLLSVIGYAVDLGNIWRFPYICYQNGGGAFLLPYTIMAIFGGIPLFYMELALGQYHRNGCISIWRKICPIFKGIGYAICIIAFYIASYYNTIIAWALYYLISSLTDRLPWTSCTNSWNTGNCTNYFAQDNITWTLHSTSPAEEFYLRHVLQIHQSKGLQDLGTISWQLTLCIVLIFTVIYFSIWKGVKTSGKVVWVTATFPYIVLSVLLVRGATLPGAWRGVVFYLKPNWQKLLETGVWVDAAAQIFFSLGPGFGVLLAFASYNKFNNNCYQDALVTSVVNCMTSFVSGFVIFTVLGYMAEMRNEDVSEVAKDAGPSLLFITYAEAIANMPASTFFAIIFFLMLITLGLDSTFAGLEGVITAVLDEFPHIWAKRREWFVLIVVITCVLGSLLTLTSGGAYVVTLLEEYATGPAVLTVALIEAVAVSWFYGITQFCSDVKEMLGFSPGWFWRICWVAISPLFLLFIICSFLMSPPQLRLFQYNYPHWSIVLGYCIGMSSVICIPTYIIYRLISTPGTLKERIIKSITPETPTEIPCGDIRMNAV
Nature of the assay: Inhibition of serotonin re-uptake (5-HT uptake inhibition) in rat brain synaptosomes. In kind it is biochemical. On the set-up: concentration or dose not given beside the values. Conditions: synaptosomes (P2 fraction) from pons and medulla oblongata region of male rat brain; means from 2 parallel experiments. How it is done: The investigations of the inhibition of serotonin re-uptake (5-HT uptake inhibition) were carried out by the methods such as are described in M. Ch. Frink, H.-H.-Hennies, W. Englberger, M. Haurand and B. Wilffert, Arzneim.-Forsch./Drug. Res. 46 (III), 11, 1996, pages 1029-1036. They are introduced herewith as reference and thus form part of the disclosure.
To carry out these investigations, synaptosomes were freshly isolated from rat brain areas. In each case the so-called “P2” fraction was used, which was prepared according to the instructions in E. G. Gray and V. P. Whittaker, J. Anat. 76, pages 79-88, 1962. This literature is introduced herewith as reference and thus forms part of the disclosure. For determination of the 5-HT uptake, these vesicular particles were isolated from the pons and medulla oblongata region of the male rat brain.
The following characteristic data were determined for the 5-HT transporter: • 5-HT uptake: Km=0.084±0.011 μM • Vmax: 38.13±4.52 pmol/min/mg protein. The results of the investigations are in each case stated as means from 2 parallel experiments.

Regarding `Cn1cccc1C(c1ccccc1)N1CCCC1` (centres unmarked) [Example 15, 1-Methyl-2-(phenylpyrrolidin-1-yl-methyl)-1H-pyrrole], in assay [1], the “Inhibition of the Writhing reaction in %” value came out at 87%.

Regarding `CN(C)C(c1ccccc1)c1cccn1C` (centres unmarked) [Example 16, Dimethyl-[(1-methyl-1H-pyrrol-2-yl)-phenylmethyl]-amine], in assay [1], the “Inhibition of the Writhing reaction in %” value was 17%.

Take `N#CCCn1cccc1C(c1ccccc1F)N1CCCCC1` (centres unmarked) [Example 22, 3-{2-[(2-Fluoro-phenyl)-piperidin-1-yl-methyl]-pyrrol-1-yl}-propionitrile]: the “Inhibition of 5HT uptake in %” value at 5-HT transporter is reported as 83%.

With `Brc1ccc(C(c2cccn2-c2ccccc2)N2CCCC2)cc1` (centres unmarked) [Example 23, 2-[(4-Bromo-phenyl)-pyrrolidin-1-yl-methyl]-1-phenyl-1H-pyrrole], on 5-HT transporter, the “Inhibition of 5HT uptake in %” value was found to be 57%.

On to `Cc1cccc(C(c2cccn2-c2ccccc2N)N2CCCCC2)c1` (centres unmarked) [Example 24, 2-[2-(Piperidin-1-yl-m-tolyl-methyl)-pyrrol-1-yl]-phenylamine], for which the “Inhibition of 5HT uptake in %” value on 5-HT transporter is on record as 59%.

`Fc1cc(Br)ccc1C(c1cccn1Cc1ccccn1)N1CCCC1` (centres unmarked) [Example 25, 2-{2-[(4-Bromo-2-fluoro-phenyl)-pyrrolidin-1-yl-methyl]-pyrrol-1-ylmethyl}-pyridine]: the “Inhibition of 5HT uptake in %” value at 5-HT transporter is recorded as 52%.

With `c1ccc(Oc2cccc(C(c3cccn3Cc3ccccn3)N3CCCCC3)c2)cc1` (centres unmarked) [Example 26, 2-{2-[(3-Phenoxy-phenyl)-piperidin-1-yl-methyl]-pyrrol-1-ylmethyl}-pyridine], the “Inhibition of 5HT uptake in %” value at 5-HT transporter amounted to 71%.

Consider `NC(=S)c1ccccc1-n1cccc1C(c1cccc(Oc2ccccc2)c1)N1CCCCC1` (centres unmarked) [Example 27, 2-{2-[(3-Phenoxy-phenyl)-piperidin-1-yl-methyl]-pyrrol-1-yl}-thiobenzamide], for which the “Inhibition of 5HT uptake in %” value at 5-HT transporter amounted to 44%.

In the case of `Fc1ccc(C(c2cccn2CCCl)N2CCCCC2)cc1` (centres unmarked) [Example 28, 1-[[1-(2-Chloro-ethyl)-1H-pyrrol-2-yl]-(4-fluoro-phenyl)-methyl]-piperidine], the “Inhibition of 5HT uptake in %” value on 5-HT transporter was found to be 40%.

Take `OCCn1cccc1C(c1cccc(Oc2ccccc2)c1)N1CCCCC1` (centres unmarked) [Example 29, 2-{2-[(3-Phenoxy-phenyl)-piperidin-1-yl-methyl]-pyrrol-1-yl}-ethanol]: the “Inhibition of 5HT uptake in %” value on 5-HT transporter was determined as 48%.

As for `Cc1cccc(C(c2cccn2CCCO)N2CCCCC2)c1` (centres unmarked) [Example 30, 3-[2-(Piperidin-1-yl-m-tolyl-methyl)-pyrrol-1-yl]-propan-1-ol], the “Inhibition of 5HT uptake in %” value on 5-HT transporter stood at 43%.

On to `OCCCn1cccc1C(c1ccc(F)cc1)N1CCCCC1` (centres unmarked) [Example 31, 3-{2-[(4-Fluoro-phenyl)-piperidin-1-yl-methyl]-pyrrol-1-yl}-propan-1-ol], for which, on 5-HT transporter, the “Inhibition of 5HT uptake in %” value worked out at 50%.

With `Cn1cccc1C(c1ccc(F)cc1)N1CCCCC1` (centres unmarked) [Example 32, 1-[(4-Fluoro-phenyl)-(1-methyl-1H-pyrrol-2-yl)-methyl]-piperidine], the “Inhibition of 5HT uptake in %” value on 5-HT transporter is reported as 42%.

For `Cn1cccc1C(c1ccc(C(F)(F)F)cc1)N1CCCCC1` (centres unmarked) [Example 33, 1-[(1-Methyl-1H-pyrrol-2-yl)-(4-trifluoromethyl-phenyl)-methyl]-piperidine], on 5-HT transporter, the “Inhibition of 5HT uptake in %” value turned out to be 55%.

Turning to `Nc1ccccc1-n1cccc1C(c1c(F)cccc1Cl)N1CCCC1` (centres unmarked) [Example 34, 2-{2-[(2-Chloro-6-fluoro-phenyl)-pyrrolidin-1-yl-methyl]-pyrrol-1-yl}-phenylamine], the “Inhibition of 5HT uptake in %” value on 5-HT transporter is listed as 39%.

Regarding `Brc1cccc(C(c2cccn2Cc2ccccn2)N2CCCC2)c1` (centres unmarked) [Example 35, 2-{2-[(3-Bromo-phenyl)-pyrrolidin-1-yl-methyl]-pyrrol-1-ylmethyl}-pyridine], the “Inhibition of 5HT uptake in %” value on 5-HT transporter stood at 43%.

Regarding `Fc1ccc(C(c2cccn2Cc2ccccn2)N2CCCC2)cc1Br` (centres unmarked) [Example 36, 2-{2-[(3-Bromo-4-fluoro-phenyl)-pyrrolidin-1-yl-methyl]-pyrrol-1-ylmethyl}-pyridine], on 5-HT transporter, the “Inhibition of 5HT uptake in %” value was determined as 63%.

`Fc1cccc(Cl)c1C(c1cccn1Cc1ccccn1)N1CCCC1` (centres unmarked) [Example 37, 2-{2-[(2-Chloro-6-fluoro-phenyl)-pyrrolidin-1-yl-methyl]-pyrrol-1-ylmethyl}-pyridine]: at 5-HT transporter, the “Inhibition of 5HT uptake in %” value is reported as 39%.

`N#Cc1ccc(C(c2cccn2Cc2ccccn2)N2CCCC2)cc1` (centres unmarked) [Example 38, 4-[(1-Pyridin-2-ylmethyl-1H-pyrrol-2-yl)-pyrrolidin-1-yl-methyl]-benzonitrile]: on 5-HT transporter, the “Inhibition of 5HT uptake in %” value came to 45%.

On to `Fc1ccc(-n2cccc2C(c2ccc(F)c(Br)c2)N2CCCC2)cc1` (centres unmarked) [Example 39, 2-[(3-Bromo-4-fluoro-phenyl)-pyrrolidin-1-yl-methyl]-1-(4-fluoro-phenyl)-1H-pyrrole], for which the “Inhibition of 5HT uptake in %” value on 5-HT transporter is listed as 37%.

Take `O=C(O)c1ccccc1-n1cccc1C(c1cc(Br)ccc1F)N1CCCC1` (centres unmarked) [Example 40, 2-{2-[(5-Bromo-2-fluoro-phenyl)-pyrrolidin-1-yl-methyl]-pyrrol-1-yl}-benzoic acid]: the “Inhibition of 5HT uptake in %” value on 5-HT transporter is reported as 51%.

For the compound `NC(=S)c1ccccc1-n1cccc1C(c1cc(Br)ccc1F)N1CCCC1` (centres unmarked) [Example 41, 2-{2-[(5-Bromo-2-fluoro-phenyl)-pyrrolidin-1-yl-methyl]-pyrrol-1-yl}-thiobenzamide], the “Inhibition of 5HT uptake in %” value at 5-HT transporter came to 41%.

As to `CC(C)(C)c1ccc(C(c2cccn2C(C)(C)C)N2CCCC2)cc1` (centres unmarked) [Example 42, 1-tert-Butyl-2-[(4-tert-butyl-phenyl)-pyrrolidin-1-yl-methyl]-1H-pyrrole], the “Inhibition of 5HT uptake in %” value at 5-HT transporter amounted to 53%.
